For this series, the system named is subjects with relapsed/refractory acute myelogenous leukemia. Put plainly: Phase 1 FIH study, acute myeloid leukemia part 3. The series is classed as in vivo, human. On the procedure: In part 3, 10 total subjects were enrolled across 2 cohorts, with doses of 60 mg/m^2 or 120 mg/m^2.

The structures appear in SMILES notation.

For the compound `CO[C@H]1/C=C/C[C@H](C)[C@@H](C)S(=O)(=O)NC(=O)c2ccc3c(c2)N(C[C@@H]2CC[C@H]21)C[C@@]1(CCCc2cc(Cl)ccc21)CO3` [AMG 176], for the setting “AML part 3”, the “Grade 3 adverse events, subjects” value was 70%; the “Serious adverse events, subjects” value was found to be 60%; the “adverse events considered related to AMG 176, subjects” value is listed as 40%; the “adverse events leading to discontinuation of investigational product, subjects” value was found to be 20%. Moreover, under “AML part 3”, the fatal adverse events result was “No fatal adverse events occurred”; the “febrile neutropenia leading to discontinuation” value is on record as 10%; the “grade 4 adverse events, subjects” value came to 20%; the “related increased blood bilirubin” value was 20%. Under “AML part 3”, the related nausea is 20% and the “superior vena cava syndrome leading to discontinuation” value is reported as 10%. Moreover, the “adverse events, subjects” value (AML part 3, 10 subjects) is reported as 80%. For the same compound, for the setting “AML part 3, any grade”, the “anemia, subjects” value was 20%; the “hypokalemia, subjects” value worked out at 30%; the “hypomagnesemia, subjects” value was 20%; the “increased blood bilirubin, subjects” value is 20%. In addition, for the setting “AML part 3, any grade”, the “nausea, subjects” value is listed as 30%; the “peripheral edema, subjects” value worked out at 30%; the “pyrexia, subjects” value is given as 20%; the “vomiting, subjects” value came to 20%. In addition, the “anemia of grade 3 or higher” value (AML part 3, both cohorts combined) amounted to 20%. For the same compound, the “exposures (Cmax and AUC) versus dose” value (AML, 10 subjects, 60 or 120 mg/m^2, preliminary) is given as “generally increased with increasing doses”.
